Data from patent US10494334B2, “Compounds to inhibit calcium/calmodulin dependent protein kinase II and applications thereof” (priority 2018, dated 2019).
pIC50: −log10 of the molar value.

Tests used:
[1] = test system: DENV-2-eGFP reporter virus; assay: Cell-based anti-DENV-2 screening with DENV-2-eGFP reporter virus in BE(2)C cells; set-up: species or system type 2 dengue virus; details: Dengue virus, DENV2, BE(2)-C, 24 h, read-out: DENV-2 infection %
BE(2)C cells = assay: XTT cell proliferation assay; assay type: cell-based; details: Homo sapiens, 6.25 μM compound, compared to solvent control
Procedure: The cytotoxicity of candidate compounds to BE(2)C cells was evaluated by use of the cytotoxicity detection kit (LDH) (Roche), cell proliferation kit (XTT) (Roche), and Trypan blue cell counting assay. Briefly, cells were treated overnight with the candidate compounds at the indicated doses and subjected to the three assays. For LDH and XTT assays, light absorbance of the sample at 490 nm was determined by using an enzyme-linked immunosorbent assay (ELISA) reader (Molecular Devices). For Trypan blue cell counting assay, the number of viable cells was determined by use of haemocytometer. Data was normalized to solvent control and presented as a percentage.

purified human CaMKII = molecular target: T1, purified human CaMKII (Homo sapiens, UniProt Q9UQM7); assay: CaMKII biochemical assay (CycLex CaM kinase II Assay Kit); details: syntide-2 substrate, Ca2+, calmodulin, Mg2+, ATP; normalized to solvent control
T1 construct: MBL Internationl Corp (assay kit)
T1 sequence (Q9UQM7 with tags, fused parts or gaps): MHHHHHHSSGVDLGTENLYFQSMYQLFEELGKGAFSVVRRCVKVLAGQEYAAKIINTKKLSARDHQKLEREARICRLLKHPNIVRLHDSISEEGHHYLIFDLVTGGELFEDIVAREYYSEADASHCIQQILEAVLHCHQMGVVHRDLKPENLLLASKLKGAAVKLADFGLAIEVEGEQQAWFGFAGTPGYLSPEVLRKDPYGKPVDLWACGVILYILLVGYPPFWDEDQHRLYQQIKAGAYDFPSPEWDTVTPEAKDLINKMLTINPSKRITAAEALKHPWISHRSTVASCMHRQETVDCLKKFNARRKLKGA
Procedure: A commercial CaMKII inhibitor, KN-62 (Selleckchem, S7422) was used as a positive control. Kinase reaction buffer without Ca^2+ was used as a negative control. The assay wells of the microtiter plate were then incubated with HRP-conjugated-anti-phospho-syntide-2 antibody, followed by addition of syntide-2. The phosphorylation reaction was stopped after incubation at room temperature for 15 minutes. Sample absorbance at 450 nm was determined by use of an ELISA reader (Molecular Devices). Data was normalized to solvent control and presented as a percentage.

DENV-2 = assay: Virus binding/entry assays, DENV-2 on BE(2)C cells; assay type: cell-based, type 2 dengue virus
DENV-2 PL046 strain = assay: Antiviral assay, wild type DENV-2 in BE(2)C cells (IFA, Western blotting, plaque-forming assay); assay type: cell-based, type 2 dengue virus; details: three hours of treatment during viral adsorption (0-3 hpi), MOI 1, Western blot
DENV-2 NGC-N strain = assay: Animal study, DENV-2-infected Stat1-deficient mice; assay type: in vivo; details: for overall survival: 6-day treatment
Procedure: (§1) The mouse experiments were approved by the Academia Sinica Institutional Animal Care and Use Committee and performed in accordance with the guidelines. Infection was performed in mice under isoflurane anesthesia to minimize animal suffering. The DENV-2 New Guinea C strain serially passaged in mouse brain (NGC-N), kindly provided by Dr. Ching-Juh Lai (National Institutes of Health, USA) and ZIKV PRVABC59 strain were used in the animal study. Groups of 6-week-old Stat1^−/− mice were intravenously infected in the tail with 1×10^5 PFU of DENV-2 per mouse or subcutaneously infected in the footpad with 5×10^4 PFU of ZIKV per mouse. […] The mice were checked daily for severe symptoms including limb paralysis. Euthanasia of mice with severe limb paralysis was performed as the endpoint of animal survival. Mice survival was presented as percentage of survival. Mouse serum samples were collected on day 3 after infection by phlebotomy from facial vein, and the virus load was determined by plaque-forming assay.
(§2) Data are presented as mean±standard deviation and were compared by ANOVA and Bonferroni post-hoc test unless otherwise specified. Statistical significance was set at P values of <0.05 or <0.01. A survival curve was descriptively analyzed by use of SigmaPlot v10.0 (Systat software). The median survival time (T50) and P values, based on log-rank test, were determined by use of Prism v5.0 (GraphPad software). For Western blotting, the band intensity was quantified by use of ImageJ software (National Institutes of Health).

ZIKV = assay: Virus binding/entry assays, ZIKV on BE(2)C cells
Procedure: For the virus entry assay, BE(2)C cells were first adsorbed with DENV-2 or ZIKV at 4° C. for 90 minutes. […] Thereafter, the cells were treated with an acidic glycine solution (0.1 M, pH=3) for 5 minutes to inactivate non-internalized virus and washed with cold Hank's balanced salt solution (HBSS). The cells were harvested with cell scrapers, and the adsorbed viruses were released by passing the cells through a 27-G needle 7 times. Cell lysates were centrifuged at 12,000 rpm for 1 minute, and the supernatant was used for plaque-forming assay to determine the level of virus binding and/or entry.

ZIKV PRVABC59 strain = assay: Animal study, ZIKV-infected Stat1-deficient mice; assay type: in vivo; details: for median survival time (T50): 8 mg/kg of body weight/day oral
Procedure: as §1, §2

[2] = 37° C. for 60 minutes after adsorption, dose-dependent
[3] = adsorption at 4° C. for 90 minutes
[4] = 8-hours-delay treatment, 4 mg/kg of body weight/day oral
[5] = immediate treatment, 2 mg/kg of body weight/day oral
[6] = immediate treatment, 4 mg/kg of body weight/day oral
[7] = serum on day 3 after infection, plaque-forming assay, dose-dependent

SMILES | melting point [°C] | activity at 3.125 µM [1] [%] | viability at 6.25 µM (BE(2)C cells) [%] | also measured
COc1ccc(S(=O)(=O)NCCCC(=O)c2ccc(F)cc2)cc1 [Compound 3] | 84 to 85 | – | – | –
COc1ccc(S(=O)(=O)N(CCCC(=O)C2CCCC2)c2ccccc2)cc1 [Compound 8, N-(4-cyclopentyl-4-oxobutyl)-4-methoxy-N-phenylbenzenesulfonamide] | 89 to 90 | 25.1 | – | –
COc1ccc(S(=O)(=O)N(CCCC(=O)C2CCCCCC2)C2CCCCC2)cc1 [Compound 14, N-(4-cycloheptyl-4-oxobutyl)-N-cyclohexyl-4-methoxybenzenesulfonamide] | – | 65.7 | 97.5 | –
CN([C@@H](Cc1ccc(OS(=O)(=O)c2cccc3cnccc23)cc1)C(=O)N1CCN(c2ccccc2)CC1)S(=O)(=O)c1cccc2cnccc12 [KN-62, reference compound] | – | – | – | pIC50 (purified human CaMKII): ~5.99
COc1ccc(S(=O)(=O)N(CCCC(C)=O)c2ccccc2)cc1 [Compound 5, 4-methoxy-N-(4-oxopentyl)-N-phenylbenzenesulfonamide] | 81 to 82 | 101 | 106 | –
COc1ccc(S(=O)(=O)N(C)CCCC(=O)c2ccc(F)cc2)cc1 [Compound 4, N-(4-(4-fluorophenyl)-4-oxobutyl)-4-methoxy-N-methylbenzenesulfonamide] | 89 to 90 | 101 | 106 | –
O=C(CCCN(c1ccccc1)S(=O)(=O)c1ccc(OC(F)(F)F)cc1)C1CCCC1 [Compound 11, N-(4-cyclopentyl-4-oxobutyl)-N-phenyl-4-(trifluoromethoxy)benzenesulfonamide] | 69 to 70 | 118 | 92.4 | –
Cc1ccc(S(=O)(=O)N(CCCC(=O)C2CCCCCC2)c2ccccc2)cc1 [Compound 13, N-(4-cycloheptyl-4-oxobutyl)-4-methyl-N-phenylbenzenesulfonamide] | – | 76.9 | 99.5 | –
COc1ccc(S(=O)(=O)N(CCCC(=O)C2CCCCCC2)c2ccccc2)cc1 [Compound 9, N-(4-cycloheptyl-4-oxobutyl)-4-methoxy-N-phenylbenzenesulfonamide] | – | 9.6 | – | level of DENV-2 entry (DENV-2; [2]): significantly reduced; DENV-2 binding to cells (DENV-2; [3]): no effect; viral-NS3 expression (DENV-2 PL046 strain): dose-dependently reduced; median survival time (T50) (DENV-2 NGC-N strain; 8-hours-delay treatment, 2 mg/kg of body weight/day oral): 14 days; median survival time (T50) (DENV-2 NGC-N strain; [4]): 22 days; mice protected from mortality (DENV-2 NGC-N strain; [4]): 40%; median survival time (T50) (DENV-2 NGC-N strain; [5]): 15 days; overall animal survival (DENV-2 NGC-N strain; [5]): minor effect; overall survival (DENV-2 NGC-N strain; [6]): 60%; overall survival (DENV-2 NGC-N strain; immediate treatment, 8 mg/kg of body weight/day oral): 60%; viral load (DENV-2 NGC-N strain; [7]): significantly reduced; level of ZIKV entry (ZIKV; [2]): significantly reduced; level of ZIKV binding/entry (ZIKV; MOI 10, 90 minutes at room temperature): significantly reduced; ZIKV binding to cells (ZIKV; [3]): no effect; overall survival (ZIKV PRVABC59 strain; 8-hours-delay treatment): minor effect; median survival time (T50) (ZIKV PRVABC59 strain; 8-hours-delay treatment): 10 days; overall survival (ZIKV PRVABC59 strain; [6]): did not improve; median survival time (T50) (ZIKV PRVABC59 strain; immediate treatment): 11 days; viral load (ZIKV PRVABC59 strain; [7]): significantly reduced
COc1ccc(S(=O)(=O)N(CCCC(=O)C2CCCCCC2)c2ccc3c(c2)CCCC3)cc1 [Compound 15, N-(4-cycloheptyl-4-oxobutyl)-4-methoxy-N-(5,6,7,8-tetrahydronaphthalen-2-yl)-benzenesulfonamide] | 111 to 112 | 21.5 | 104 | –
COc1ccc(S(=O)(=O)N(CCCC(O)c2ccc(F)cc2)c2ccccc2)cc1 (centres unmarked) [Compound 2, N-(4-(4-fluorophenyl)-4-hydroxybutyl)-4-methoxy-N-phenylbenzenesulfonamide] | – | 48.5 | 76.3 | –
COc1ccc(S(=O)(=O)N(CCCC(=O)C2CCCCCC2)c2ccc(C3CCCCC3)cc2)cc1 [Compound 16, N-(4-cycloheptyl-4-oxobutyl)-N-(4-cyclohexylphenyl)-4-methoxybenzenesulfonamide] | 103 to 104 | 13.8 | – | –
COc1ccc(S(=O)(=O)N(CCCC(=O)C2C3CC4CC(C3)CC2C4)c2ccccc2)cc1 (centres unmarked) [Compound 10, N-(4-(adamantan-2-yl)-4-oxobutyl)-4-methoxy-N-phenylbenzenesulfonamide] | 117 to 118 | 51.1 | 96.7 | –
COc1ccc(S(=O)(=O)N(CCCC(=O)C2CCC2)c2ccccc2)cc1 [Compound 7, N-(4-cyclobutyl-4-oxobutyl)-4-methoxy-N-phenylbenzenesulfonamide] | – | 33 | 93.9 | pIC50 (purified human CaMKII): ~6.22
COc1ccc(S(=O)(=O)N(CCCC(=O)C2CCCCC2)c2ccccc2)cc1 [Compound 6, N-(4-cyclohexyl-4-oxobutyl)-4-methoxy-N-phenylbenzenesulfonamide] | 81 to 82 | 63.3 | 107 | –
COc1ccc(S(=O)(=O)N(CCCC(=O)c2ccc(F)cc2)c2ccccc2)cc1 [Compound 1, N-(4-(4-fluorophenyl)-4-oxobutyl)-4-methoxy-N-phenylbenzenesulfonamide] | 93 to 94 | 39.3 | 56.1 | –
O=C(CCCN(c1ccccc1)S(=O)(=O)c1ccc(Oc2ccccc2)cc1)C1CCCCCC1 [Compound 12, N-(4-cycloheptyl-4-oxobutyl)-4-phenoxy-N-phenylbenzenesulfonamide] | 127 to 128 | 73.4 | 95.5 | –
